The source made the active and inactive calls. The calls are words filed in the database; no cut-off is given here.
Key:
A549 [1] = assay: Induction of apoptosis in human A549 cells assessed as early apoptotic cells at 5 nM for 24 hrs by annexin V-FITC/propidium iodide staining-based flow cytometry analysis (reference value: 0.82%); type: functional
[2] = Metabolic stability in Sprague-Dawley rat liver microsomes assessed as compound remaining after 120 mins in presence of NADPH by UV-based HPLC-MS/MS analysis; type: ADME, microsome; conditions: read-out: Stability
RKO = assay: Antiproliferative activity against human RKO cells after 48 hrs by MTT assay
HepG2 = assay: cells; conditions: Homo sapiens, HepG2, 48 h
A549 [3] = assay: Disruption of mitochondrial membrane potential in human A549 cells assessed as intact mitochondrial membrane at 5 nM after 24 hrs by JC1 staining-based flow cytometry method (reference value: 99.18%); type: functional
MDA-MB-231 = assay: Antiproliferative activity against human MDA-MB-231 cells after 48 hrs by MTT assay; conditions: MDA-MB-231, 48 h
MGC-803 = assay: Antiproliferative activity against human MGC803 cells after 48 hrs by MTT assay; conditions: MGC-803, 48 h
A549/CDDP = assay: Antiproliferative activity against human A549/CDDP cells after 48 hrs by MTT assay; type: functional, cell-based
A549 [4] = assay: Induction of apoptosis in human A549 cells assessed as early apoptotic cells at 1 nM for 48 hrs by annexin V-FITC/propidium iodide staining-based flow cytometry analysis (reference value: 0.97%); type: functional
A549 [5] = assay: Induction of apoptosis in human A549 cells assessed as early apoptotic cells at 1 nM for 24 hrs by annexin V-FITC/propidium iodide staining-based flow cytometry analysis (reference value: 0.82%); type: functional
A549 [6] = assay: Disruption of mitochondrial membrane potential in human A549 cells assessed as intact mitochondrial membrane at 1 nM after 24 hrs by JC1 staining-based flow cytometry method (reference value: 99.18%); type: functional
[7] = Metabolic stability in Sprague-Dawley rat liver microsomes assessed as compound remaining after 90 mins in presence of NADPH by UV-based HPLC-MS/MS analysis; type: ADME, microsome; conditions: read-out: Stability
A549 [8] = assay: Cell cycle arrest in human A549 cells assessed as increase in accumulation of cells at G2/M phase at 1 nM after 24 hrs by propidium iodide staining-based flow cytometry method; type: functional
A549 [9] = assay: Induction of apoptosis in human A549 cells assessed as late apoptotic cells at 1 nM for 48 hrs by annexin V-FITC/propidium iodide staining-based flow cytometry analysis; type: functional
A549 [10] = assay: Induction of apoptosis in human A549 cells assessed as necrotic cells at 1 nM for 24 hrs by annexin V-FITC/propidium iodide staining-based flow cytometry analysis (reference value: 0.03%); type: functional
A549 [11] = assay: Induction of apoptosis in human A549 cells assessed as downregulation of Bcl2 expression at 1 to 10 nM after 24 to 48 hrs by Western blot analysis; type: functional, cell-based
A549 [12] = assay: Induction of apoptosis in human A549 cells assessed as live cells at 5 nM for 48 hrs by annexin V-FITC/propidium iodide staining-based flow cytometry analysis (reference value: 99.01%); type: functional
A549 [13] = assay: Induction of apoptosis in human A549 cells assessed as live cells at 10 nM for 48 hrs by annexin V-FITC/propidium iodide staining-based flow cytometry analysis (reference value: 99.01%); type: functional
[14] = Metabolic stability in Sprague-Dawley rat liver microsomes assessed as compound remaining after 30 mins in presence of NADPH by UV-based HPLC-MS/MS analysis; type: ADME, microsome; conditions: read-out: Stability
A549 [15] = assay: Induction of apoptosis in human A549 cells assessed as live cells at 5 nM for 24 hrs by annexin V-FITC/propidium iodide staining-based flow cytometry analysis (reference value: 99.15%); type: functional
A549 [16] = assay: Induction of apoptosis in human A549 cells assessed as late apoptotic cells at 10 nM for 48 hrs by annexin V-FITC/propidium iodide staining-based flow cytometry analysis; type: functional
A549 [17] = assay: Induction of apoptosis in human A549 cells assessed as necrotic cells at 5 nM for 48 hrs by annexin V-FITC/propidium iodide staining-based flow cytometry analysis (reference value: 0.02%); type: functional
LoVo = assay: Antiproliferative activity against human LoVo cells after 48 hrs by MTT assay
A549 [18] = assay: Cell cycle arrest in human A549 cells assessed as increase in accumulation of cells at G2/M phase at 5 to 10 nM after 24 hrs by propidium iodide staining-based flow cytometry method; type: functional
[19] = Resistance index, ratio of IC50 for human HepG2/DOX cells to IC50 for human HepG2 cells; type: functional
[20] = Metabolic stability in Sprague-Dawley rat liver microsomes assessed as compound remaining after 60 mins in presence of NADPH by UV-based HPLC-MS/MS analysis; type: ADME, microsome; conditions: read-out: Stability
A549 [21] = assay: cells; conditions: Homo sapiens, A549, 48 h
A549 [22] = assay: Induction of apoptosis in human A549 cells assessed as late apoptotic cells at 10 nM for 24 hrs by annexin V-FITC/propidium iodide staining-based flow cytometry analysis; type: functional
A549 [23] = assay: Induction of apoptosis in human A549 cells assessed as downregulation of Bcl-xl expression at 1 to 10 nM after 24 to 48 hrs by Western blot analysis; type: functional, cell-based
[24] = Metabolic stability in Sprague-Dawley rat liver microsomes assessed as compound remaining after 150 mins in presence of NADPH by UV-based HPLC-MS/MS analysis; type: ADME, microsome; conditions: Sprague-Dawley, liver microsomes, read-out: Stability
A549 [25] = assay: Induction of apoptosis in human A549 cells assessed as necrotic cells at 5 nM for 24 hrs by annexin V-FITC/propidium iodide staining-based flow cytometry analysis (reference value: 0.03%); type: functional
A549 [26] = assay: Disruption of mitochondrial membrane potential in human A549 cells at 10 nM after 24 hrs by JC1 staining-based flow cytometry method (reference value: 0.62%); type: functional
A549 [27] = assay: Induction of apoptosis in human A549 cells assessed as early apoptotic cells at 10 nM for 48 hrs by annexin V-FITC/propidium iodide staining-based flow cytometry analysis (reference value: 0.97%); type: functional
A549 [28] = assay: Disruption of mitochondrial membrane potential in human A549 cells after 24 hrs by JC1 staining-based flow cytometry method; type: functional, cell-based
MCF7 = assay: cells; conditions: Homo sapiens, MCF7, 48 h
A549 [29] = assay: Induction of apoptosis in human A549 cells assessed as late apoptotic cells at 5 nM for 48 hrs by annexin V-FITC/propidium iodide staining-based flow cytometry analysis; type: functional
A2780 = assay: cells; conditions: Homo sapiens, A2780, 48 h
Description: Antiproliferative activity against human A2780 cells after 48 hrs by MTT assay

HCT-116 = assay: cells; conditions: Homo sapiens, HCT-116, 48 h
[30] = Resistance index, ratio of IC50 for human A549/CDDP cells to IC50 for human A549 cells; type: functional
A549 [31] = assay: Induction of apoptosis in human A549 cells assessed as live cells at 1 nM for 48 hrs by annexin V-FITC/propidium iodide staining-based flow cytometry analysis (reference value: 99.01%); type: functional

C=C(c1ccc(OC)c(O)c1)c1cc(OC)c(OC)c([Se]C)c1
Activity (A549 [1]): 31.36% | remaining at 2 h [2]: 33.4% | IC50 (RKO): 11 nM | IC50 (HepG2): 3 nM | Activity (A549 [3]): 57.63% | IC50 (MDA-MB-231): 2.2 nM | IC50 (MGC-803): 9 nM | IC50 (A549/CDDP): 34.4 nM | Activity (A549 [4]): 15.79% | Activity (A549 [5]): 3.63% | Activity (A549 [6]): 86.88% | remaining at 1.5 h [7]: 44.1% | Activity (A549 [8]): 50% | Activity (A549 [9]): 2.86% | Activity (A549 [10]): 0.2% | Activity (A549 [11]): Active | Activity (A549 [12]): 49.13% | Activity (A549 [13]): 23.45% | remaining at 0.5 h [14]: 81.1% | Activity (A549 [15]): 64.43% | Activity (A549 [16]): 20.44% | Activity (A549 [17]): 10.45% | IC50 (LoVo): 9 nM | Activity (A549 [18]): 70% | Ratio IC50 [19]: 6.8 | remaining at 1 h [20]: 62.3% | IC50 (A549 [21]): 3.9 nM | Activity (A549 [22]): 1.45% | Activity (A549 [23]): Active | remaining at 2.5 h [24]: 25.8% | Activity (A549 [25]): 1.69% | Activity (A549 [26]): 90.78% | Activity (A549 [27]): 42.57% | Activity (A549 [28]): Dose-dependent effect | IC50 (MCF7): 27 nM | Activity (A549 [29]): 24.73% | IC50 (A2780): 6 nM | IC50 (HCT-116): 12 nM | Ratio IC50 [30]: 8.8 | Activity (A549 [31]): 80.49%
